The test system of assay [1] is platelet aggregation induced by U-46619 in human platelet-rich plasma (PRP). Nature of the assay: Platelet aggregation inhibitory action (U-46619-induced, human platelet-rich plasma). Conditions: compounds added 1 minute before U-46619, turbidity. The assay is classed as cell-based. On the procedure: Human whole blood drawn from the median cubital vein was centrifuged for 10 minutes at 800 rpm, and the upper portion was collected as platelet-rich plasma (PRP). […] The size of the aggregates were measured with a platelet aggregate measuring instrument (Hematracer 1, Nikko Bioscience) as the change in turbidity. The compounds were added 1 minute before addition of U-46619, and the concentration which inhibits aggregation by 50% was calculated as the IC50 value.

The next assay deals with T1, Thromboxane A2 Receptor (Oryctolagus cuniculus, UniProt Q6WQI8).
T1 sequence (Q6WQI8 1-233): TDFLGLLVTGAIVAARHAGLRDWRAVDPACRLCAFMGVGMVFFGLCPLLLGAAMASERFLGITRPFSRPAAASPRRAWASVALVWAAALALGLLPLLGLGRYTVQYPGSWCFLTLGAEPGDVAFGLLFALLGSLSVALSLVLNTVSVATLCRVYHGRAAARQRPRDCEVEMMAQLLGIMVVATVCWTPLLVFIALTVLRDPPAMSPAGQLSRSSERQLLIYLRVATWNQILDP
Nature of the assay: Receptor binding experiment: Thromboxane A2 Receptor Binding Test ([3H]SQ29548, washed platelets). Also on record: species or system New Zealand White rabbits. Conditions: rabbit washed platelets; [3H]SQ29548 3 nM; 60 minutes at 25° C.; read-out: Binding Inhibitory Action IC50 (converted). The method, then: Whole blood from New Zealand White rabbits was collected into a container containing ACD solution (1.175 g of sodium citrate, 0.685 g of citric acid, and 1 g of dextrose dissolved in 50 ml of distilled water) followed by centrifuging at room temperature for 10 minutes at 180 ×g to obtain platelet-rich plasma. Moreover, this platelet-rich plasma was further centrifuged at room temperature and 2800 ×g to result in sedimentation of the platelets. The platelets were resuspended in 50 mM Tris hydrochloric acid buffer solution (pH 7.2, containing […]) and again centrifuged at 4° C. for 15 minutes at 2800 ×g. This procedure was repeated twice to prepare the washed platelets, and adjusted to a final concentration of 10 mg/ml (wet weight). Tritium-labelled SQ29548 ([3H]SQ29548) was used for the TXA2 ligand. In an antagonism experiment, 20 μl of [3H]SQ29548 at a final concentration of 3 nM were added to 500 μl of a 10 mg/ml platelet suspension, together with adding 2.6 μl of the test drug dissolved in a suitable buffer. After incubating for 60 minutes at 25° C., the mixture was filtered over a glass filter using the Celherbster method, the filter was washed with 50 mM Tris hydrochloric acid buffer solution (3 ×4 ml), and radioactivity was measured with a scintillation counter to determine the amount of [3H]SQ29548 bound to the platelets. In addition, in a saturation test, 20 μl of [3H]SQ29548 were added to a final concentration of 0.1-50 nM followed by the addition of 2.6 μl of BM13505 at a final concentration of 1 μM in order to examine non-specific binding and carry out a binding experiment. The concentration of the test drug which inhibited binding of [3H]SQ29548 by 50% was determined as the IC50 value.

For assay [2], the system named is vasoconstriction of rat thoracic aorta induced by U-46619. Put plainly: Vasoconstriction inhibitory action (U-46619-induced constriction of thoracic aorta spiral specimens). Also on record: species or system long Evans rats. Conditions: 10 min, pH 7.4, minimum concentration at which inhibition rate was 50% or more, 10 ng/ml U-46619, drug applied 10 minutes, 37° C., read-out: Vasoconstriction Inhibitory Action MIC. The method, then: Male and female long Evans rats having body weights of 150-200 g were used in this example. After sacrificing the animals by decapitation, the thoracic aorta was removed, and the outer membrane was peeled off to obtain I2 spiral specimens roughly 2 cm in length. Blood vessel specimens were warmed to 37° C. and preserved in a Magnus tube containing 10 ml of a nutrient solution aerated with 95% oxygen+5% carbon dioxide gas. The nutrient solution contained 118.3 mmol of NaCl, 4.7 mmol of KCl, […] of CaCl, 1.2 mmol of MgSO4, 1.2 mmol of KH2 PO4, 25 mmol of NaCHO3, 11.1 mmol of D-glucose, 0.03 mmol of EDTA along with 1 μg/ml each of atropin, phentolamine, mepiramine, cyproheptadine, propranolol and indometacin, and was adjusted to a pH of 7.4. Vasoconstriction was measured using an isometric transducer (Harward UF-1 Transducer and Sekonic SS-250F Graph recorder). An equilibration time of 3 hours was provided after the blood vessels were installed on the Magnus device, and fresh nutrient solution was replaced every 30 minutes during that time. […] of U-46619, having TXA2 action (to reach roughly 75% of maximum constriction), was applied for 30 minutes to constrict the vessels. The maximum stable constriction during this time was taken to be the control constriction (C1). Next, the blood vessels were washed several times with nutrient solution to remove the drug. After allowing a recovery period of 30 minutes, the test drugs were applied at various concentrations for 10 minutes followed by again constricting the vessels by applying 10 ng/ml of U-46619 for 30 minutes. The maximum stable constriction during this time was taken to be the constriction of the test drugs (C2). The inhibition rates of vasoconstriction induced by the drugs and U-46619 were determined according to the following formula, and the minimum concentration at which the inhibition rate was 50% or more was determined as the minimum inhibitory concentration (MIC).
((C1-C2)/C1)×100=Inhibition rate (%)

The structures appear in SMILES notation. pIC50: −log10 of the molar value.

This is an account of results in patent publication US5496849A, “Sulfonic acid derivative and its pharmaceutical application” (Toray Industries, Inc., priority 1992, dated 1996).

As usually defined, the pIC50 is the negative decadic logarithm of the IC50, by convention in mol/L. One may read the IC50 as the concentration at which inhibition is half-maximal. `O=C(O)COc1cccc2c1O[C@H]1C[C@@H](O)[C@H](NS(=O)(=O)c3ccccc3Cl)[C@@H]21` (relative stereo) [(59), (1RS, 2RS, 3aSR, 8bRS)-1-(o-chlorobenzenesulfonamido)-2-hydroxy-2,3,3a,8b-tetrahydro-1-cyclopenta[b]benzofuran-5-yloxyacetic acid]: the negative logarithm of the IC50 (pIC50) in assay [1] was 7.16. The IC50 on Thromboxane A2 Receptor was 22.7 nM. Moreover, the minimal effective concentration in assay [2] was 0.1 µg/mL.

Consider `O=C(O)/C=C/c1cccc2c1O[C@H]1C[C@@H](O)[C@H](NS(=O)(=O)c3ccccc3)[C@@H]21` (relative stereo) [(88), (1RS, 2RS, 3aSR, 8bRS)-1-benzenesulfonamido-2-hydroxy-2,3,3a,8b-tetrahydro-1H-cyclopenta[b]benzofuran-5-(E)-acrylic acid], for which, in assay [1], the pIC50 is 6.35. Moreover, on Thromboxane A2 Receptor, the IC50 is 648 nM. The minimal effective concentration in assay [2] turned out to be 0.3 µg/mL.

The compound `O=C(O)COc1ccc(CCNS(=O)(=O)c2ccccc2)cc1` [Control, 4-(2-(benzenesulfonamido)ethyl) phenoxyacetic acid, reference compound] gave a pIC50 in assay [1] of 5.30. Also, on Thromboxane A2 Receptor, the IC50 was 4170 nM. Moreover, the minimal effective concentration in assay [2] is 0.3 µg/mL.
